Key:
[1] = system: human prostate cancer cell line DU145; test: Inhibition of proliferation of prostate cancer cell line DU145 (CellTiter Glo luminescence); assay type: cell-based; conditions: DU145 cells; for cell proliferation (without synthetic peptide set to 100): final concentration 30 μM; for inhibitory activity against cell proliferation: cell-penetrating peptide substituted or removed, same way as Example 2
Method: (§1) Human prostate cancer cell line DU145 was cultured in DMEM containing 10% fetal cattle serum (FCS) at 37° C. and 5% CO2 with passaging. DU145 cells were seeded into 96-well plates at 5000 cells/well, then cultured at 37° C. for 24 hours, and then further cultured for 48 hours in 10% FCS-containing DMEM that contains each of the synthesized peptides of Example 1 at a final concentration of 1 μM, 10 μM, 50 μM or 100 μM. The medium was discarded after culturing, and then 25 μL of 50-fold diluted solution of CellTiter Glo Reagent (Promega) (diluted with PBS (−) containing 0.1% NP-40) was added to each well. Next, the resulting solution was shaken at room temperature for 10 minutes, and then luminescence level was measured with a plate reader (Infinite M200, Tecan). A relative luminescence level of each synthetic peptide was calculated when the average luminescence level measured for control cells cultured in 10% FCS-containing DMEM without any synthetic peptide was set to 100, and was used as an index of cell proliferation.
The peptides listed in Table 2 below were designed and evaluated for their inhibitory activities against proliferation of DU145 cells in the same way as in Example 2. Each of the peptides 4T-2-D-1-4, 4H-2-D-1-4 and 4F-2-D-1-4 is a peptide in which the octaarginine sequence of the peptide 42-D-1-4 is substituted with an amino acid sequence of another cell-penetrating peptide, and each has, from the N-terminal side, an amino acid sequence of TAT peptide, HTLV-II-Rex or FHV coat (35-49), a linker sequence of one Gly residue, and an amino acid sequence corresponding to G45-Y51 of the PH domain. The peptides #R8(−)-2-D-1, #R8(−)-2-D-1-4 and #R8(−)-6-A-2 are peptides with the octaarginine sequence and the linker sequence removed from the peptides #2-D-1, #2-D-1-4 and #6-A-2, respectively.
The peptides listed in Table 3 below were designed and evaluated for their inhibitory activities against proliferation of DU145 cells, in the same way as in Example 2 except that the final concentrations of the synthetic peptides were set to 3 μM, 10 μM and 30 μM. The peptides #2-D-1-4-1A to #2-D-1-4-7A are peptides in which GLTIYFY (SEQ ID NO: 36) of peptide #2-D-1-4 was substituted with Ala one by one from the N-terminal side.

[2] = system: human breast cancer cell line T47D; test: Inhibition of proliferation of T47D cells; assay type: cell-based; conditions: cultured 96 hours with peptide
Cyclin D1 (Ccnd1) = test: Real-time PCR of Cyclin D1 gene expression in DU145 cells; assay type: cell-based, human; conditions: peptide 10 μM, 15 and 30 minutes
Method: (§2) DU145 cells, cultured in DMEM containing 10% fetal cattle serum (FCS) at 37° C. and 5% CO2 with passage, were seeded into 6-well plates at 5.0×10^5 cells/well, and then cultured at 37° C. for 24 hours. The cells were incubated for 2 hours in serum-free DMEM. Then, the synthetic peptide #2-D-1-4 (final concentration 10 μM) was added, and cells were collected 15 minutes later and 30 minutes later. Cells without addition of any synthetic peptide were prepared in the same way.
(§3) Total RNA was extracted from the cells with use of TRIzol (Thermo Fisher Scientific). cDNA was synthesized from the total RNA with use of ReverTra Ace (TOYOBO) and random hexamer primers. Real-time PCR was carried out with the following primer sets and MX3000P (Agilent Technologies, Inc.) to measure the relative gene expression levels of Cyclin D1 (Ccnd1), which is associated with cell proliferation, and Survivin, which is associated with cancer cell survival.

[3] = system: human pancreatic cancer cell line BxPC3; test: Inhibition of proliferation of BxPC3 cells; assay type: cell-based; conditions: BxPC3, same manner as Example 2
Survivin = test: Real-time PCR of Survivin gene expression in DU145 cells; assay type: cell-based, human; conditions: peptide 10 μM, 15 and 30 minutes
Method: as §2, §3

[4] = system: human melanoma cell line A375; test: Inhibition of proliferation of A375 cells; assay type: cell-based; conditions: A375, same manner as Example 2
Method: as §1, with “proliferation. […]” for “proliferation.”

[5] = system: human lung cancer cell line A549; test: Inhibition of proliferation of A549 cells; assay type: cell-based; conditions: A549, same manner as Example 2
[6] = system: human glioma cell line U251; test: Inhibition of proliferation of U251 cells; assay type: cell-based; conditions: U251, same manner as Example 2
[7] = system: human cervical cancer cell line HeLa; test: Inhibition of proliferation of HeLa cells; assay type: cell-based; conditions: same manner as Example 2
DU145 cells = test: Antitumor effect in DU145 tumor-bearing model; assay type: in vivo, BALB/c nude mice; conditions: 2 mg/body intratumoral
Method: DU145 cells (5.0×10^6 cells) were injected subcutaneously into right flank of BALB/c nude mice (female, 4 weeks old). On days 14, 17 and 20 after implantation, solvent (5% DMSO, control) or the synthetic peptide #2-D-1-4 (2 mg/body) was intratumorally administered. Tumor diameters were measured with calipers every 3 days starting on day 14 after implantation, and tumor volumes (longer diameter×shorter diameter×shorter diameter/2) were calculated. The mice were euthanized on day 32 after implantation, then tumor mass were collected and their weights were measured.

[8] = system: human liver cancer cell line Hep3B; test: Inhibition of proliferation of Hep3B cells; assay type: cell-based; conditions: same manner as Example 2
[9] = molecular target: T1, EGFR/STAP-2 interaction (EGFR-HA and GST-STAP-2) (Homo sapiens, UniProt P00533, C187G/DEL142-186); test: GST pull-down and immunoblot of EGFR/STAP-2 interaction; assay type: binding; conditions: HEK293T lysate, peptide 1 μM or 50 μM, 4° C. 1 hour
T1 construct: expressed in transfected cells; host or cells: HEK293T

In the case of “RRRRRRRRGG GLTIYAY (RRRRRRRRGGGLTIYAY) [#2-D-1-4-6A]”, the “cell proliferation (without synthetic peptide set to 100)” value [1] is reported as “approximately 50%”.
In the case of “RRRRRRRRGG GATIYFY (RRRRRRRRGGGATIYFY) [#2-D-1-4-2A]”, the “cell proliferation (without synthetic peptide set to 100)” value [1] is reported as “approximately 50%”.
For “RRRRRRRRGG GLTIYFY (RRRRRRRRGGGLTIYFY) [#2-D-1-4]”, the “activity to inhibit proliferation” value [2] was “exhibited the activity to inhibit proliferation”, the “gene expression level of Ccnd1” value (Cyclin D1 (Ccnd1)) was “reduced” and the “activity to inhibit proliferation” value [3] was “exhibited the activity to inhibit proliferation”. The “gene expression level of Survivin” value (Survivin) was “reduced”, the “activity to inhibit proliferation” value [4] was “exhibited the activity to inhibit proliferation” and the “activity to inhibit proliferation” value [5] was “exhibited the activity to inhibit proliferation”. For the same substance, the “activity to inhibit proliferation” value [6] was “exhibited the activity to inhibit proliferation”, the “activity to inhibit proliferation” value [7] was “exhibited the activity to inhibit proliferation” and the “final weight of the tumor mass compared to the control” value (DU145 cells; days 14, 17 and 20, day 32 after implantation) was “significant reduction”. The “tumor volume compared to the control” value (DU145 cells; days 14, 17 and 20 after implantation) was “inhibition of increase in tumor volume”, the “activity to inhibit proliferation” value [8] was “exhibited the activity to inhibit proliferation” and the “complex between EGFR-HA and GST-STAP-2 in pull-down fraction” value [9] was “not detected”.
For RRRRNRTRRNRRRVRGGLTIYFY [#F-2-D-1-4], the “inhibitory activity against cell proliferation” value (from here on “inhibitory activity”) [1] was “the same extent of inhibitory activity against cell proliferation as that of the peptide #2-D-1-4”.
In the case of GLTIYFY [#R8(−)-2-D-1-4], the “inhibitory activity” value [1] is reported as “none”.
“RRRRRRRRGG GLAIYFY (RRRRRRRRGGGLAIYFY) [#2-D-1-4-3A]” was tested, and the “cell proliferation (without synthetic peptide set to 100)” value [1] was “approximately 50%”.
With VVELRVP [#R8(−)-6-A-2] the “inhibitory activity” value [1] was “none”.
With TRRQRTRRARRNRGGLTIYFY [#H-2-D-1-4] the “inhibitory activity” value [1] was “the same extent of inhibitory activity against cell proliferation as that of the peptide #2-D-1-4”.
For GRKKRRQRRRPPQGGLTIYFY [#T-2-D-1-4], the “inhibitory activity” value [1] was “the same extent of inhibitory activity against cell proliferation as that of the peptide #2-D-1-4”.
QGLTIYFYN [#R8(−)-2-D-1] was tested, and the “inhibitory activity” value [1] was “none”.
